Source: US5498602A, “Oligosaccharide aromatic glycoside and sulfate thereof” (priority 1991, dated 1996)

Assays:
HIV = assay: Anti-AIDS (HIV) activity in HIV-infected MT-4 cells (MTT method); format: cell-based; conditions: for EC50 (50% effective concentration, prevention of 50% of cytopathogenic effects of HIV): 37° C., MTT method
Protocol: (§1) Evaluation method: Test substances having various concentrations were placed in a 96-well microtiter plate along with HIV-infected MT-4 cells (2.5×10^4 /well, MOI: 0.01) immediately after the infection thereof. In order to ascertain the cytotoxicity of the test substance with respect to the MT-4 cells, non-infected cells were cultured in an identical manner along with the test substances of various concentrations. After culturing for 5 days at a temperature of 37° C. in a CO2 incubator, the number of living cells was determined using the MTT method. The antiviral activity is shown in terms of the concentration which prevented 50% of the cytopathogenic effects of the HIV virus (EC50 : 50% effective concentration) and the cytotoxicity is shown in terms of the concentration at which the cytotoxicity of the test substance reaches 50% (CC50 : 50% cytotoxic concentration).Furthermore, the selectivity index (S.I.) is calculated as CC50 /EC50.
(§2) (Reference: Pauwels, et al., J. Viral Methods, 20 (1988) 309-321). Using this method, the compounds of Examples 30-43 were tested for anti-HIV activity. The compounds shown in Table 2 (Examples 35~38) are produced by means of novel sulfation methods. For the purposes of comparison, the conventional anti-AIDS agents AZT (3'-azido-2',3'-dideoxythymidine) and dextran sulfate were also tested, and the results thereof are appended as comparative data.

MT-4 cells = assay: Cytotoxicity with respect to non-infected MT-4 cells (MTT method); format: cell-based; conditions: 5 days; for CC50 (50% cytotoxic concentration): 37° C., MTT method
Protocol: as §1, §2

[1] = HIV-infected MT-4 cells, MOI 0.01, 5 days

Compound | SI (selectivity index, CC50/EC50) (HIV; CC50/EC50, MT-4 cells, HIV) | EC50 (HIV; Human immunodeficiency virus 1, MT4, 120 h, AZT, footnote: units are μM, HIV-infected MT-4 cells, MOI 0.01, 5 days, read-out: EC50 (50% effective concentration)) [µM] | CC50 (MT-4 cells; AZT, footnote: units are μM, read-out: CC50 (50% cytotoxic concentration)) [µM] | EC50 (50% effective concentration, prevention of 50% of cytopathogenic effects of HIV) (HIV; [1]) [µg/mL] | CC50 (50% cytotoxic concentration) (MT-4 cells) [µg/mL]
Cc1cn([C@H]2C[C@H](N=[N+]=[N-])[C@@H](CO)O2)c(=O)[nH]c1=O [AZT, 3'-azido-2',3'-dideoxythymidine, reference compound] | 2700 | 0.004 | 10.8 | – | –
dextran sulfate [reference compound] | – | – | – | 0.50 | > 1000
heptyloxyphenyl β-D-galactopyranosyl-(1→4)-{β-D-galactopyranosyl-(1→4)}2 -β-D-glucopyranoside sulfate [Example 42] | – | – | – | 0.23 | > 1000
octyloxyphenyl β-D-galactopyranosyl-(1→4)-{β-D-galactopyranosyl-(1→4)}2 -β-D-glucopyranoside sulfate [Example 40] | – | – | – | 0.95 | > 1000
octyloxyphenyl β-D-galactopyranosyl-(1→4)-β-D-galactopyranosyl-(1→4)-β-D-glucopyranoside sulfate [Example 41] | – | – | – | 1.12 | > 1000
octylphenyl β-D-galactopyranosyl-(1→4)-{β-D-galactopyranosyl-(1→4)}2 -β-D-glucopyranoside sulfate [Example 39] | – | – | – | 0.82 | > 1000
p-(1,1,3,3-tetramethylbutyl)phenyl β-D-galactopyranosyl-(1→4)-{β-D-galactopyranosyl-(1→4)}2 -β-D-glucopyranoside sulfate [Example 43] | – | – | – | 0.04 | > 1000
p-(1,1,3,3-tetramethylbutyl)phenyl β-D-glucopyranosyl-(1→3)-{β-D-glucopyranosyl-(1→3)}3 -β-D-glucopyranoside sulfate [Example 35] | – | – | – | 0.038 | > 1000
p-(1,1,3,3-tetramethylbutyl)phenyl β-D-glucopyranosyl-(1→3)-{β-D-glucopyranosyl-(1→3)}m -β-D-glucopyranoside sulfate [Example 38] | – | – | – | 0.020 | > 1000
p-heptyloxyphenyl β-D-glucopyranosyl-(1→3)-{β-D-glucopyranosyl (1→3)}3 -β-D-glucopyranoside sulfate [Example 36] | – | – | – | 0.062 | > 1000
p-heptyloxyphenyl β-D-glucopyranosyl-(1→3)-{β-D-glucopyranosyl-(1→3)}3 -β-D-glucopyranoside sulfate [Example 33] | – | – | – | 0.77 | > 1000
p-octylphenyl β-D-glucopyranosyl-(1→3)-{β-D-glucopyranosyl (1→3)}3 -β-D-glucopyranoside sulfate [Example 30] | – | – | – | 0.62 | > 1000
p-octylphenyl β-D-glucopyranosyl-(1→3)-{β-D-glucopyranosyl (1→3)}3 -β-D-glucopyranoside sulfate [Example 37] | – | – | – | 0.080 | > 1000
p-octylphenyl β-D-glucopyranosyl-(1→3)-{β-D-glucopyranosyl (1→3)}5 -β-D-glucopyranoside sulfate [Example 34] | – | – | – | 0.31 | > 1000
p-pentylphenyl β-D-glucopyranosyl-(1→3)-{β-D-glucopyranosyl (1→3)}3 -β-D-glucopyranoside sulfate [Example 31] | – | – | – | 0.75 | > 1000
sulfated p-heptyloxyphenyl β-D-glucopyranosyl-(1→3)-{β-D-glucopyranosyl-(1→3)}3 -β-D-glucopyranoside [Example 32] | – | – | – | 0.72 | > 1000
